Results as given in PMC3961306, “Comparison of the Cancer Gene Targeting and Biochemical Selectivities of All Targeted Kinase Inhibitors Approved for Clinical Use” (PLoS ONE, 2014).

Experiments:
Experiment in all cases: Kinase profiling in a biochemical assay panel (mobility shift assays and ELISA), %-inhibition at 1 μM; selectivity entropy
[1] = target: T1, panel of more than 300 wild-type and mutant kinases (313 kinase panel) (Homo sapiens, UniProt O14965)
T1 sequence (O14965 1-403): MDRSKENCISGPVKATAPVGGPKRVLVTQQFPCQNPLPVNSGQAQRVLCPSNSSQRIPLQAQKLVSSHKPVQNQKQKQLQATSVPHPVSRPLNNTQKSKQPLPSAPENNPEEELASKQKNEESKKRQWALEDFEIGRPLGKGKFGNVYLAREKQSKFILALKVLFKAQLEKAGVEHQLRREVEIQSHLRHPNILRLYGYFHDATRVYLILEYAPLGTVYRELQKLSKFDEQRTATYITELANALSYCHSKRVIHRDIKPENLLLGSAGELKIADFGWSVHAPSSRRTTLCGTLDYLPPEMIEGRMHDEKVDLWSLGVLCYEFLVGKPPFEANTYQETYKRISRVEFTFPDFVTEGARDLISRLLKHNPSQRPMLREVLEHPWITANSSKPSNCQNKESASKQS

[2] = target: panel of more than 300 wild-type and mutant kinases (313 kinase panel) (Homo sapiens, UniProt P23443)
[3] = target: panel of more than 300 wild-type and mutant kinases (313 kinase panel) (Homo sapiens, UniProt P45984)
Sequence of panel of more than 300 wild-type and mutant kinases (313 kinase panel) (Homo sapiens, UniProt P45984) (P45984 whole entry, change not shown): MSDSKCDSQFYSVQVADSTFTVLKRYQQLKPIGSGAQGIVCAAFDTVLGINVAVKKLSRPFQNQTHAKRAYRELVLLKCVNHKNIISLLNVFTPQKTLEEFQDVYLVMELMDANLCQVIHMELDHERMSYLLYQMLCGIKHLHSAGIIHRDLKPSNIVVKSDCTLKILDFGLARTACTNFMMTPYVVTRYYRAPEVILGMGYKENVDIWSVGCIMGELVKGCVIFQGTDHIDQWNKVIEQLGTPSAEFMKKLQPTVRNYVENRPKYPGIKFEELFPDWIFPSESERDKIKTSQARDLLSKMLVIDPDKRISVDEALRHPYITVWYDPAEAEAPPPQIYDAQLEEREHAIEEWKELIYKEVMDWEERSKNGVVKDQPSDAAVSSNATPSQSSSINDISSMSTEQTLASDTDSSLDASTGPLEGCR

[4] = target: T2, panel of more than 300 wild-type and mutant kinases (313 kinase panel) (Homo sapiens, UniProt P46734)
T2 sequence (P46734 1-347): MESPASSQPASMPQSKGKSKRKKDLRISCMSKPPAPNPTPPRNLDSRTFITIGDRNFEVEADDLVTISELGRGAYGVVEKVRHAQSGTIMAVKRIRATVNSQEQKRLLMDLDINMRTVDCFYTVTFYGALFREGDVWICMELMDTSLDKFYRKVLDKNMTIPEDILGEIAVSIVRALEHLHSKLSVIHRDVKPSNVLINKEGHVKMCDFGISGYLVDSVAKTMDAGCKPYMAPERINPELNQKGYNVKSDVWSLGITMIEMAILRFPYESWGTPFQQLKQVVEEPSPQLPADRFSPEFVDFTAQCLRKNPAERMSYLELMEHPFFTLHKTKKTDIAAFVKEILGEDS

[5] = target: panel of more than 300 wild-type and mutant kinases (313 kinase panel) (Homo sapiens, UniProt P53667)
[6] = target: panel of more than 300 wild-type and mutant kinases (313 kinase panel) (Homo sapiens, UniProt Q13153)
[7] = target: T3, panel of more than 300 wild-type and mutant kinases (313 kinase panel) (Homo sapiens, UniProt Q13188)
T3 sequence (Q13188 1-491): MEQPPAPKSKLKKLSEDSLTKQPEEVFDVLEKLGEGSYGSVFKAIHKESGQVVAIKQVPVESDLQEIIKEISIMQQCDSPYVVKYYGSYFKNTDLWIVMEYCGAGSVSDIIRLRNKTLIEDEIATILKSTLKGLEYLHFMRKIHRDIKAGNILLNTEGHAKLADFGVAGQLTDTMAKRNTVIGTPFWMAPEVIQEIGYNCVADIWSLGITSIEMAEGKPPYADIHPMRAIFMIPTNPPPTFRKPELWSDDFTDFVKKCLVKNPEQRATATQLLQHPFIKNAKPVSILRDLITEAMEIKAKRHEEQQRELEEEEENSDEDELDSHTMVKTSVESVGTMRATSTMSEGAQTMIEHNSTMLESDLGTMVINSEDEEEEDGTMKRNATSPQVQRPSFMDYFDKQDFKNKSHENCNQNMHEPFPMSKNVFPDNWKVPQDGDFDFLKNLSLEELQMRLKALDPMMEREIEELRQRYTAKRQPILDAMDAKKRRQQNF

[8] = target: T4, panel of more than 300 wild-type and mutant kinases (313 kinase panel) (Homo sapiens, UniProt Q13976)
T4 sequence (Q13976 1-671): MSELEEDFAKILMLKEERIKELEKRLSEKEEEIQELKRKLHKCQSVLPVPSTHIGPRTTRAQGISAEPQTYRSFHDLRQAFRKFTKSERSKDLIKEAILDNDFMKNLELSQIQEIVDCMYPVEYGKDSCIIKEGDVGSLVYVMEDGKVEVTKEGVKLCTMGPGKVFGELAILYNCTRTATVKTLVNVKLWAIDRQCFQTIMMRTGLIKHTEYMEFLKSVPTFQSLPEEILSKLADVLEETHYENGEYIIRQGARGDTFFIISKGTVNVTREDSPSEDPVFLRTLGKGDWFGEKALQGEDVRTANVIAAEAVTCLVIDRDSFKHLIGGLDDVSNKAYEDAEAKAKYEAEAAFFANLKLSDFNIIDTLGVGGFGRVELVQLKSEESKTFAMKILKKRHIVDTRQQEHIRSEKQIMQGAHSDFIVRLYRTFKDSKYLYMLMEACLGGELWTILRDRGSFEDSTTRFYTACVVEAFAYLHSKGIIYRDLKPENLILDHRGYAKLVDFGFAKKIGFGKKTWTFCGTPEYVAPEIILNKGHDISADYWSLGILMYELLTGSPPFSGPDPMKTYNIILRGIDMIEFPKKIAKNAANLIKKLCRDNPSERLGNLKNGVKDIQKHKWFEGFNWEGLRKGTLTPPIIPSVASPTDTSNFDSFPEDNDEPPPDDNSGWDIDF

[9] = target: panel of more than 300 wild-type and mutant kinases (313 kinase panel) (Homo sapiens, UniProt Q9UKE5)
Sequence of panel of more than 300 wild-type and mutant kinases (313 kinase panel) (Homo sapiens, UniProt Q9UKE5) (Q9UKE5 whole entry, change not shown): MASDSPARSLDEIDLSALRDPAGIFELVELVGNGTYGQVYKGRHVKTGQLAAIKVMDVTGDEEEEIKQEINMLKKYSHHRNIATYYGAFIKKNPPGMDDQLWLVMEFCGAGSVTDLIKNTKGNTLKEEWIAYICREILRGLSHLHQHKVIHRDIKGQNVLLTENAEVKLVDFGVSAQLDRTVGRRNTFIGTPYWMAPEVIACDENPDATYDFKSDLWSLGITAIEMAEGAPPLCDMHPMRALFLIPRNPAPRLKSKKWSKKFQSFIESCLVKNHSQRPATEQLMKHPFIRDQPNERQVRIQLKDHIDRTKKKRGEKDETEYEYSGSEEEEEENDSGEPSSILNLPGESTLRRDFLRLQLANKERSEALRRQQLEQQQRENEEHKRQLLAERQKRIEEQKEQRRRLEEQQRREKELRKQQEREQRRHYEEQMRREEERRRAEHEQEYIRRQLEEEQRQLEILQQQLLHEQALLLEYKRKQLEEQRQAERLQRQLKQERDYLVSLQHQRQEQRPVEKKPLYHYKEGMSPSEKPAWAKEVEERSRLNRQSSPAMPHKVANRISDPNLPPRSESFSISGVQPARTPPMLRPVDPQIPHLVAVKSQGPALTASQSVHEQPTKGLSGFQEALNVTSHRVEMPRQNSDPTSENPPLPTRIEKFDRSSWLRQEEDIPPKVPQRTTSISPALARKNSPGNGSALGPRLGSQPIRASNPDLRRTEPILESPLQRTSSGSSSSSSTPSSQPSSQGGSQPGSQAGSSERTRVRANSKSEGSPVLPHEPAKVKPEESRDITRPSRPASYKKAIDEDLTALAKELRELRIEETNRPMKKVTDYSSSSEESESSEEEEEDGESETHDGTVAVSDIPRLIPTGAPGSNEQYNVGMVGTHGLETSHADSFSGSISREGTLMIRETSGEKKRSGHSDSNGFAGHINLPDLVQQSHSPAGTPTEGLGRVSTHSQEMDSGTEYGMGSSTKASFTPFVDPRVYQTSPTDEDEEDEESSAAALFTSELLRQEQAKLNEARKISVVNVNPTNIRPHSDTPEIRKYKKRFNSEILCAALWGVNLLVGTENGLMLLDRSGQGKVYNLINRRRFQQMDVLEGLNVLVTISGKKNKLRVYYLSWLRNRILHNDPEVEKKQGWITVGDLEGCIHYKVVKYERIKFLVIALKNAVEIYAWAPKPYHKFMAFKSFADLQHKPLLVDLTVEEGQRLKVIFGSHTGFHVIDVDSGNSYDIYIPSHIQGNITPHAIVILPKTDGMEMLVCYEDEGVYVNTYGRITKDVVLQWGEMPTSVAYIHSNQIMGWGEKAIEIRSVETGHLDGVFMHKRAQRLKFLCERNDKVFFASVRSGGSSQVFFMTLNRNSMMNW

[10] = kinase AurA/TPX2, 1 μM compound
[11] = kinase MAP2K3, compound at 1 μM

| Compound | %-inhibition, AurA/TPX2 [1, 10] [%] | %-inhibition of p70S6K ([2]; 1 µM) [%] | %-inhibition of JNK2 ([3]; kinase JNK2, compound at 1 μM) [%] | %-inhibition of MAP2K3 [4, 11] [%] | %-inhibition of LIMK1 ([5]; kinase LIMK1, compound at 1 μM) [%] | %-inhibition of PAK1 ([6]; kinase PAK1, 1 μM) [%] | %-inhibition of MST2 ([7]; kinase MST2, 1 μM) [%] | %-inhibition of PGK ([8]; kinase PGK, 1 μM) [%] | %-inhibition of TNIK ([9]; kinase TNIK, 1 μM) [%] | %-inhibition, AurA ([1]; kinase AurA, 1 μM compound) [%] | %-inhibition of p70S6K ([2]; kinase p70S6K, 1 μM) [%] | %-inhibition, AurA ([1]; 1 µM) [%] | %-inhibition, AurA/TPX2 ([1]; 1 µM) [%] | %-inhibition of JNK2 ([3]; 1 µM) [%] | %-inhibition of MAP2K3 ([4]; 1 µM) [%] | %-inhibition of LIMK1 ([5]; 1 µM) [%] | %-inhibition of PAK1 ([6]; 1 µM) [%] | %-inhibition of MST2 ([7]; 1 µM) [%] | %-inhibition of PGK ([8]; 1 µM) [%] | %-inhibition of TNIK ([9]; 1 µM) [%] |
| --- | --- | --- | --- | --- | --- | --- | --- | --- | --- | --- | --- | --- | --- | --- | --- | --- | --- | --- | --- | --- |
| N#CC[C@H](C1CCCC1)n1cc(-c2ncnc3[nH]ccc23)cn1 [ruxolitinib] | 63 | 20 | -6 | 27 | 60 | -5.62 | 3 | 14 | 0.811 |  |  |  |  |  |  |  |  |  |  |  |
| COc1cc2nccc(Oc3ccc(NC(=O)C4(C(=O)Nc5ccc(F)cc5)CC4)cc3)c2cc1OC [cabozantinib] | 29 |  | 4 | 72 | 51 | -2.55 | -0.31 | -3 | 16 | 54 | 8 |  |  |  |  |  |  |  |  |  |
| CCCS(=O)(=O)Nc1ccc(F)c(C(=O)c2c[nH]c3ncc(-c4ccc(Cl)cc4)cc23)c1F [vemurafenib] | -2.59 |  | -0.0632 | 34 | 45 | -5 | 24 | -4.33 | 33 | 23 | 9 |  |  |  |  |  |  |  |  |  |
| C#Cc1cccc(Nc2ncnc3cc(OCCOC)c(OCCOC)cc23)c1 [erlotinib] |  | 10 |  |  |  |  |  |  |  |  |  | 29 | 1.46 | 13 | 10 | 0.0961 | 6.37 | 7 | 1.68 | 34 |
| CNC(=O)c1cc(Oc2ccc(NC(=O)Nc3ccc(Cl)c(C(F)(F)F)c3)c(F)c2)ccn1 [regorafenib] | -4 |  | 57 | 90 | 66 | -8 | -6.39 | -7 | 42 | 7 | 92 |  |  |  |  |  |  |  |  |  |
| CO[C@H]1C[C@@H]2CC[C@@H](C)[C@@](O)(O2)C(=O)C(=O)N2CCCC[C@H]2C(=O)O[C@H]([C@H](C)C[C@@H]2CC[C@@H](OC(=O)C(C)(CO)CO)[C@H](OC)C2)CC(=O)[C@H](C)/C=C(\C)[C@@H](O)[C@@H](OC)C(=O)[C@H](C)C[C@H](C)/C=C/C=C/C=C/1C [temsirolimus] | -3.42 |  | -4.61 | 10 | -5 | -3.8 | -3.41 | -5.57 | -2.54 | -12 | -13 |  |  |  |  |  |  |  |  |  |
| Cc1cn(-c2cc(NC(=O)c3ccc(C)c(Nc4nccc(-c5cccnc5)n4)c3)cc(C(F)(F)F)c2)cn1 [nilotinib] | -9 |  | 9 | 94 | -18 | -159 | -8 |  | 11 | -5.43 | 2 |  |  |  |  |  |  |  | -13 |  |
